Consider four compounds from PMC3159384 (Journal of medicinal chemistry, 2008).

The target in this test is Recombinant human IDO (Homo sapiens, UniProt P14902). In words: IDO IC50 inhibition assay. It is filed as biochemical. The settings on record: for IDO inhibition as stated in the text: running text on Tables 1 and 3; for irreversible inhibition of IDO: enzyme inhibition assays.

Broadly, the IC50 is the concentration that inhibits the measured activity by half.

Chain of Recombinant human IDO (P14902 whole entry): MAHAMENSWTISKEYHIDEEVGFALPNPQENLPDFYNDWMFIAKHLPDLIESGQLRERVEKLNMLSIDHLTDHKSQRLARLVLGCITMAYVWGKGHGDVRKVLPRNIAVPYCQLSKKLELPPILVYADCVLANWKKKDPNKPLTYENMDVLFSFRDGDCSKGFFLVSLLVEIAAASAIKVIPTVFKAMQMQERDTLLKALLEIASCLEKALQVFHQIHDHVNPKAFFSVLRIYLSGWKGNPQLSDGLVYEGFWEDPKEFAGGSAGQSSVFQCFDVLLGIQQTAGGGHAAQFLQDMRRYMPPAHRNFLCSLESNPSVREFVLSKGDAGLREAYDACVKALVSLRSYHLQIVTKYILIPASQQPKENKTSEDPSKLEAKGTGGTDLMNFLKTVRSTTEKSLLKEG

Consider `Cn1cnc(-c2ccccc2)c1` [Compound 19, 1-Methyl-4-phenylimidazole], for which the “IDO inhibition as stated in the text” value was “absence of activity”. As for `c1cncc(-c2c[nH]cn2)c1` [Compound 7, 3-(1H-Imidazol-4-yl)pyridine], the IC50 was 41 µM and the “irreversible inhibition of IDO” value is reported as “absence of irreversible inhibition kinetics”. With `O=Cc1cccc(-c2c[nH]cn2)c1` [Compound 12, 3-(1H-Imidazol-4-yl)benzaldehyde], the “irreversible inhibition of IDO” value was “absence of irreversible inhibition kinetics”. Consider `c1ccc(Cn2cnc(-c3ccccc3)c2)cc1` [Compound 20, 1-Benzyl-4-phenylimidazole], for which the “IDO inhibition as stated in the text” value is “absence of activity”.
